Source: ChEMBL document CHEMBL1671790, “A new β-carbonic anhydrase from Brucella suis, its cloning, characterization, and inhibition with sulfonamides and sulfamates, leading to impaired pathogen growth” (Bioorg Med Chem, 2011)

What was measured:
O=C=O [1] = assay: Ratio of kcat to Km for human carbonic anhydrase II
O=C=O [2] = assay: Activity at human carbonic anhydrase II by spectrophotometry at pH 7.5
Brucella suis [3] = test system: Brucella suis
Brucella suis [4] = assay: Ratio of kcat to Km for Brucella suis carbonic anhydrase I
Helicobacter pylori [5] = assay: Activity at Helicobacter pylori beta-carbonic anhydrase by spectrophotometry at pH 8.3
Helicobacter pylori [6] = assay: Ratio of kcat to Km for Helicobacter pylori beta-carbonic anhydrase
Brucella suis [7] = test system: Brucella suis; remark: listed apart in the source
Brucella suis [8] = assay: Ratio of kcat to Km for Brucella suis carbonic anhydrase II
O=C=O [9] = assay: Ratio of kcat to Km for human carbonic anhydrase I
O=C=O [10] = details: Homo sapiens

Chain of Carbonic anhydrase 1 (Homo sapiens), P00915 (P00915 whole entry): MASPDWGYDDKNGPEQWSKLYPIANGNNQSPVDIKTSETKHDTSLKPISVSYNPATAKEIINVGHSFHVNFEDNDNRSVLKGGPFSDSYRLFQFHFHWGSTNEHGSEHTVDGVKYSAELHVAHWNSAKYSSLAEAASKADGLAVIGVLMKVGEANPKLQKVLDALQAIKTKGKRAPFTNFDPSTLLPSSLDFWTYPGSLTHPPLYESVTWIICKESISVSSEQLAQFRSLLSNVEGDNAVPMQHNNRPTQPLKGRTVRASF

## Carbonic anhydrase 2 (Homo sapiens) (from UniProt P00918)
O=C=O [1]
  kcat/Km: 1.5 ×10⁸ /M/s
O=C=O [2]
  kcat: 1.4 ×10⁶ /s

## O=C=O
Brucella suis [3]
  kcat: 6.4 ×10⁵ /s
Brucella suis [4]
  kcat/Km: 3.9 ×10⁷ /M/s
Helicobacter pylori [5]
  kcat: 7.1 ×10⁵ /s
Helicobacter pylori [6]
  kcat/Km: 4.8 ×10⁷ /M/s
Brucella suis [7]
  kcat: 1.1 ×10⁶ /s
Brucella suis [8]
  kcat/Km: 8.9 ×10⁷ /M/s

## Carbonic anhydrase 1 (Homo sapiens), P00915
O=C=O [9]
  kcat/Km: 5 ×10⁷ /M/s
O=C=O [10]
  kcat: 2 ×10⁵ /s
